Results: PMC7896091, “Synthesis of novel phytol-derived γ-butyrolactones and evaluation of their biological activity” (Scientific Reports, 2021)

Columns and labels:
BALB/3T3 cells = assay: Toxicity towards normal fibroblasts, SRB assay; format: cell-based; details: 72 h exposure, mean ± SD, n.a = no activity in concentration of 5, 25, 125, 625 μM
Description: (§1) Human biphenotypic B myelomonocytic leukemia MV4-11, human colon cancer LoVo cell line and normal mouse fibroblast BALB/3T3 cells were obtained from American Type Culture Collection (Rockville, Maryland, USA), human lung carcinoma A549 cells were obtained from European Collection of Authenticated Cell Cultures (UK). All the cell lines are being maintained at the Hirszfeld Institute of Immunology and Experimental Therapy, PAS, Wroclaw, Poland and were cultured according the procedure described before.
(§2) Cell lines were cultured according to the protocol described before. MV4-11 cells were cultured in RPMI 1640 medium (Gibco, UK) with 1.0 mM sodium pyruvate, and 10% fetal bovine serum (FBS) (all from Sigma-Aldrich, Germany). A549, LoVo and LoVo/DX cells were cultured in RPMI 1640 + Opti-MEM (1:1) (both from Gibco, UK) supplemented with 5% fetal bovine serum, 1.0 mM sodium pyruvate (LoVo and LoVo/DX cells) (all from Sigma Aldrich Germany) and 0.1 μg/mL doxorubicin chloride (Accord) (only LoVo/DX cells). BALB/3T3 cells in Dulbecco medium (IIET, Poland) supplemented with 10% fetal bovine serum (Sigma-Aldrich, Germany). All culture media were supplemented with 2 mM L-glutamine (Sigma-Aldrich, Germany), 100 units/mL penicillin, and 100 µg/mL streptomycin (both from Polfa Tarchomin S.A., Poland). All cell lines were grown at 37 °C with 5% CO2 humidified atmosphere.
(§3) The solutions of the compounds (50 mM) were prepared by dissolving the substances in DMSO (Sigma Aldrich, Germany). Then the tested compounds were diluted in culture medium to reach the final concentrations of 625, 125, 25 and 5 μM. Before adding of the tested compounds (24 h prior), the cells were plated in 96-well plates (Sarstedt, Germany) at a density of 1 × 10^4 or 0.5 × 10^4 (A549) cells per well. The assay was performed after 72 h of exposure to 625, 125, 25 and 5 μM of the tested agents. The in vitro cytotoxic effect of all agents was examined using the MTT (MV4-11) or SRB assay, described previously. The results were calculated as an IC50 (inhibitory concentration 50%) the concentration of tested agent, which is cytotoxic for 50% of the cancer cells. Each compound in each concentration was tested in triplicate in a single experiment, which was repeated 3–5 times.

LoVo cells = assay: Antiproliferative activity, SRB assay; format: cell-based, human; details: for IC50: 72 h exposure, SRB, mean ± SD, n.a = no activity in concentration of 5, 25, 125, 625 μM; for Selectivity index SI, LoVo: SI = IC50 BALB/3T3 / IC50 LoVo
Description: as §1, §2, §3

A549 cells = assay: Antiproliferative activity, SRB assay; format: cell-based, human; details: for IC50: 72 h exposure, SRB, mean ± SD, n.a = no activity in concentration of 5, 25, 125, 625 μM; for Selectivity index SI, A549: SI = IC50 BALB/3T3 / IC50 A549
Description: as §1, §2, §3

[1] = system: caspase-3/7 in MV4-11 cells; assay: Caspase-3/7 activity determination (Ac-DEVD-ACC substrate); format: cell-based, human; details: MV4-11, 75 µM, 72 h
Description: Caspase-3/7 activity determination was performed according to the protocol previously described. The MV4-11 cells were seeded at the density of 1 × 10^5 cells/mL of culture medium on 24-well plates (Sarstedt, Germany) to the final volume of 2 mL. The cells were exposed to the test compounds at concentrations 75 μM or campthothecin (0.05 μg/mL) as a positive control, for 72 h. After 72 h of the incubation, the cells were collected and centrifuged (5 min., 4 °C, 250×g). Cells were suspended in 50 µL of ice-cold lysis buffer (50 mM HEPES, 10% (w/v) sucrose, 150 mM NaCl, 2 mM EDTA, 1% (v/v) Triton X-100, pH 7.3, IIET, Poland) and incubated 30 min. at 4 °C. After the incubation, 40 µL of each sample was transferred to a white, 96-well plate (Corning, USA) containing 160 µL of the reaction buffer (20 mM HEPES, 10% sucrose, 100 mM NaCl, 1 mM EDTA, 10 mM DTT, 0.02% Trition X-100, pH 7.3) (IIET, Wroclaw, Poland) with 9 µM Ac-DEVD-ACC fluorogenic substrate (λex = 360 nm, λem = 460 nm). The fluorescence increase correlated with the caspase-3/7 level was continuously recorded at 37 °C for 120 min using a Biotek Synergy H4 (Biokom, Warsaw, Poland). Compounds were tested in duplicates in single experiment and each experiment was repeated at least three times independently. Results were normalized to the number of cells in each well and are reported as mean relative caspase-3/7 activity compared to untreated control sample ± SD.

albino mice = system: albino mice; design: method as in PMID 20141879; details: cited from earlier work
rats = system: rats; design: method as in PMID 20141879; details: cited from earlier work
[2] = BALB/3T3, normal mouse fibroblasts

Compound | IC50 (BALB/3T3 cells; [2]) [µM] | IC50 (LoVo cells; Homo sapiens, LoVo) [µM] | Selectivity index SI, LoVo (LoVo cells) | IC50 (A549 cells; Homo sapiens, A549) [µM] | Selectivity index SI, A549 (A549 cells) | Increase of caspase-3/7 activity compared to the control [1] | IC50 (BALB/3T3 cells; normal mouse fibroblasts) [µM] | IC50 (LoVo cells) [µM] | IC50 (A549 cells) [µM] | Lethal dose (LD50) (albino mice) | Lethal dose (LD50) (rats) [mg/kg]
C=CC(C)(CCCC(C)CCCC(C)CCCC(C)C)CC(=O)O (stereo not drawn) [compound 3, 3,7,11,15-tetramethyl-3-vinylhexadecanoic acid] | 145 ± 48 | 59.5 ± 1.1 | 2.44 | 49.5 ± 2.9 | 2.93 | 3 times |  |  |  |  | 
CC(C)CCCC(C)CCCC(C)CCC[C@]1(C)CC(=O)O[C@@H]1CBr (stereo in doubt) [compound 4, trans-5-Bromomethyl-4-methyl-4-(4′,8′,12′-trimethyltridecyl)dihydrofuran-2-one] | 348 ± 27.6 |  |  |  |  |  |  |  |  |  | 
CC(C)CCCC(C)CCCC(C)CCC[C@]1(C)CC(=O)O[C@H]1CBr (stereo in doubt) [compound 5, cis-5-Bromomethyl-4-methyl-4-(4′,8′,12′-trimethyltridecyl)dihydrofuran-2-one] | 424 ± 140 |  |  |  |  |  |  |  |  |  | 
CC(C)CCCC(C)CCCC(C)CCC[C@]1(C)CC(=O)O[C@@H]1CCl (stereo in doubt) [compound 6, trans-5-Chloromethyl-4-methyl-4-(4′,8′,12′-trimethyltridecyl)dihydrofuran-2-one] | 273 ± 16.4 | 293 ± 33.1 | 0.93 | 378 ± 32.8 | 0.72 | about 1.5 times |  |  |  |  | 
3,7,11,15-tetramethylhexadec-2-en-1-ol [Phytol (1), reference compound] |  |  | 0.25 |  | 1.01 |  | 64.5 ± 12.9 | 255 ± 46.5 | 64.1 ± 5.2 | above 5 g/kg | > 10000
